The test system of series [1] is U87MG cells. The experiment in a line: Intracellular localization by CLSM, MitoTracker Green. Format: cell-based, human. The settings on record: free Ce6 or TPP-Ce6, 2 h. How it is done:
U87MG and bEnd.3 cells (2×10^3 cells/well) were prepared in glass-bottom dishes (35×10 mm^2) and incubated for 24 h. Free Ce6, free TPP-Ce6, and bEV(TPP-Ce6) in serum-free medium were added to the cells at a final TPP-Ce6 (or Ce6) concentration of 0.15 μM. After 2 h of incubation at 37° C., the cells were washed three times with PBS and stained with 1 μg/mL DAPI (Thermo Fisher Scientific) for 10 min. Then, the cells were stained with 1 μM of LysoTracker Green DND-26 (Thermo Fisher Scientific) and 500 nM of MitoTracker Green FM (Thermo Fisher Scientific) for endo/lysosome and mitochondria staining, respectively. The glass-bottom dish was placed in live-cell chamber systems (5% CO2 at 37° C.) connected to a CLSM (Al Plus, Nikon, Japan). The obtained fluorescent images were analyzed for the quantification of colocalization ratios.

Series [2] is described as follows: ROS generation in cell-free system (DCF). The settings on record: before and after 660-nm laser treatment. The protocol: (§1) The generation of ROS by Ce6 and TPP-Ce6 before and after 660 nm laser treatment was quantified using 2′,7′-dichlorofluorescein (DCF) in a cell-free system. After the sample solutions were treated with DCF for 1 h in the dark, ROS generation was determined by measuring the fluorescence signal from the samples. The intracellular ROS production in U87MG cells after various treatments was measured using DCF-DA. U87MG cells were inoculated into 12 well-plates at a density of 3×10^5 cells/well and cultured overnight. After the cells were incubated with 10 μM DCF-DA for 15 min, they were treated with Ce6, TPP-Ce6, and bEV(TPP-Ce6) at a TPP-Ce6 (or Ce6) concentration of 10 μM. After 4 h of incubation, the cells were trypsinized and divided into two groups. One of the groups was treated with a 660 nm laser for 1 min. The cells not subjected to laser treatment were kept as a control. After 30 min of incubation in the dark, relative ROS generation levels of each sample were quantified by flow cytometry (CytoFLEX).

For series [3], the system named is U87MG cells. Put plainly: Intracellular ROS generation (DCF-DA). Format: cell-based, human. How it is done:
as §1
To visualize ROS generation by TPP-Ce6 and bEV(TPP-Ce6) in U87MG cells under light irradiation, the cells were inoculated into 12-well plates (3×10^5 cells/well) and stained with 10 μM of DCF-DA. […] The green fluorescence signals indicating intracellular ROS were observed using a fluorescence microscope (Nikon Eclipse Ti-S, Nikon, Tokyo, Japan).

The subject of series [4] is U87MG cells. Put plainly: JC-1 staining assay (mitochondrial membrane potential). Conditions: 10 μM, 4 h, 660-nm laser 1 min. Format: cell-based, human. The protocol: Changes in the mitochondria membrane potentials of U87MG cells after various treatments were evaluated using a conventional JC-1 staining assay. U87MG cells were cultured in 12-well plates (3×10^5 cells/well) 24 h before treatment with Ce6, TPP-Ce6, and bEV(TPP-Ce6) (10 µM of Ce6 or TPP-Ce6). After 4 h of incubation, the cells were exposed to a 660-nm laser for 1 min. The untreated cells were adopted as a control. Then, the irradiated cells were treated with JC-1 solution in PBS (2.5 μg/mL) for 20 min in the dark, then rinsed twice with PBS. Fluorescent images of the cells were obtained by fluorescence microscopy (Nikon Eclipse Ti—S). Red fluorescence signals indicate the JC-1 aggregates in polarized mitochondria of healthy cells whereas green fluorescence signals reflect the JC-1 monomers in depolarized mitochondria, which indicates the loss in mitochondrial membrane potential, an indicator of mitochondrial damage.

The test system of series [5] is U87MG cells. Put plainly: In vitro phototoxicity, MTT assay. Format: cell-based, human. Conditions: 10 μM. The protocol: To investigate the photodynamic effects of TPP-Ce6-loaded EVs, the viability of U87MG cells after various treatments in the presence or absence of laser irradiation was measured using a standard MTT assay. U87MG cells were treated with Ce6, TPP-Ce6, and bEV(TPP-Ce6) at an equivalent Ce6 (or TPP-Ce6) concentration (10 μM, 5.38×10^10 bEVs/mL). Cytotoxicity of blank bEVs against U87 cells was also assessed at various concentrations of bEVs. After 4 h of treatments, the cells were illuminated with a 660 nm laser for 1 min. The cells not subjected to light irradiation were adopted as a negative control. The cells were further incubated for 24 h, and their viabilities were measured.

Series [6] has as its system orthotopic GBM-xenografted mice. The experiment in a line: In vivo biodistribution and brain-tumor accumulation by IVIS. Conditions: i.v. 0.8 μmol/kg. How it is done:
(§2) All animal experiments were approved by the Institutional Animal Care and Use Committee at Gachon University (Approval number: LCDI-2017-0131). Orthotopic GBM-xenografted mice were prepared using U87MG cells stably expressing luciferase. Briefly, male athymic mice of 5 weeks of age (20-30 g) were placed on a stereotactic device (Harvard Apparatus, USA) under inhalation anesthesia using 1-1.5% isoflurane. U87MG-luc cells (1×10^5 cells) suspended in 2 μL of PBS were injected into the right striatum at a flow rate of 0.5 μL/min through a small hole in the skull at a position 2.0 mm lateral, 0.2 mm anterior, and 3.2 mm ventral to the bregma. The formation of brain tumors in the mice was identified by bioluminescence intensity (BLI).
To evaluate in vivo real-time biodistribution of Ce6, TPP-Ce6, and bEV(TPP-Ce6), orthotopic GBM-xenografted mice (n=4) were intravenously administered with 100 μL of each sample (0.8 μmol/kg for Ce6 or TPP-Ce6). Whole-body fluorescence images were acquired at the predetermined time points within 24 h after i.v. injection using an IVIS optical imaging system with a long wavelength emission filter (640-720 nm) (Ami HT imaging system, Spectral Instruments Imaging, Tucson, AZ, USA). Quantitative analysis of fluorescence intensity in the images was carried out using the region of interest (ROI) function of Aura Imaging 2.20 software (Spectral Instruments Imaging). […]

Series [7] relates to luciferase-expressing U87MG brain tumors. Put plainly: In vivo anti-brain tumor efficacy with laser irradiation. More on the design: species or system mice. The protocol:
as §2
The orthotopic GBM-bearing mice were randomly divided into five groups (n=4) and injected with one of the following regimens by i.v. injection dose of 0.8 μmol/kg Ce6 (or TPP-Ce6) via the tail vein: • (i) PBS, • (ii) PBS+L (L indicates light irradiation), • (iii) Ce6 (0.8 μmol/kg)+L, • (iv) TPP-Ce6 (0.8 μmol/kg)+L, and • (v) bEV(TPP-Ce6) (0.8 μmol/kg)+L.
At 4 h post-injection, the tumor sites of the mice were irradiated with a 660-nm laser (150 mW, 5 min) on the skull. […] Regions of bioluminescence signal were determined using Aura imaging software (Spectral Instruments Imaging). […]

As to chlorin e6 [Ce6], the “Mander's overlap coefficient with MitoTracker Green” value in the series on U87MG cells [1] is 0.31±0.03. Further, the “Relative ROS level in cell-free system” value in series [2] is reported as “significantly increased the ROS generation”. For the same substance, the “Relative intracellular ROS level, effect of light” value in the series on U87MG cells [3] (after light irradiation (660 nm, 1 min) vs before) was “significantly increased after 1 min of light exposure”. For the same substance, in the series on U87MG cells [3] (without light), the “DCF-DA fluorescence signals (images)” value was “weak fluorescence signals”. Moreover, the “JC-1 red fluorescence / red to green fluorescence ratio” value with U87MG cells [4] is “drastically decreased”. Moreover, in the series with U87MG cells [5] (660 nm laser 1 min, 24 h), the “Cell viability under light irradiation” value worked out at 72.5%. Also, the “Viability / cytotoxicity without light” value with U87MG cells [5] (no light irradiation) is listed as “slightly decreased”. Besides, the “Fluorescence in the brain” value in series [6] (24 h post-injection) is “weak fluorescence signals”. Moreover, the “Whole brain-to-whole body fluorescence intensity ratio, time course” value in series [6] (whole body at 1 min) is given as “similar”. For the same substance, the “H&E staining of brain tumor tissue” value in series [7] (day 9, upon light irradiation) is “low cell density and nuclear shrinkage”. The “Tumor growth (bioluminescence intensity)” value in series [7] (i.v. 0.8 μmol/kg, 660 nm laser 5 min at 4 h, 9 days) is recorded as “limited suppression of tumor growth”.

Source of the values: patent US20240245802A1, “PHARMACEUTICAL COMPOSITION FOR PREVENTING OR TREATING BRAIN TUMORS COMPRISING EXTRACELLULAR VESICLES LOADED WITH MITOCHONDRIA-TARGETING PHOTOSENSITIZER AS AN ACTIVE INGREDIENT” (ExoTheranostics, Inc., priority 2023, published 2024).
